Experimental data published in article PMC4869175, “Evidence that phytochrome functions as a protein kinase in plant light signalling” (Nature Communications, 2016).

Target: T1, FL-AsphyA (Avena sativa, UniProt P06593)
T1 construct: Full-length phytochrome genes of AsPHYA; made in house; host or cells: Pichia pastoris GS115
T1 sequence (P06593 1-1129): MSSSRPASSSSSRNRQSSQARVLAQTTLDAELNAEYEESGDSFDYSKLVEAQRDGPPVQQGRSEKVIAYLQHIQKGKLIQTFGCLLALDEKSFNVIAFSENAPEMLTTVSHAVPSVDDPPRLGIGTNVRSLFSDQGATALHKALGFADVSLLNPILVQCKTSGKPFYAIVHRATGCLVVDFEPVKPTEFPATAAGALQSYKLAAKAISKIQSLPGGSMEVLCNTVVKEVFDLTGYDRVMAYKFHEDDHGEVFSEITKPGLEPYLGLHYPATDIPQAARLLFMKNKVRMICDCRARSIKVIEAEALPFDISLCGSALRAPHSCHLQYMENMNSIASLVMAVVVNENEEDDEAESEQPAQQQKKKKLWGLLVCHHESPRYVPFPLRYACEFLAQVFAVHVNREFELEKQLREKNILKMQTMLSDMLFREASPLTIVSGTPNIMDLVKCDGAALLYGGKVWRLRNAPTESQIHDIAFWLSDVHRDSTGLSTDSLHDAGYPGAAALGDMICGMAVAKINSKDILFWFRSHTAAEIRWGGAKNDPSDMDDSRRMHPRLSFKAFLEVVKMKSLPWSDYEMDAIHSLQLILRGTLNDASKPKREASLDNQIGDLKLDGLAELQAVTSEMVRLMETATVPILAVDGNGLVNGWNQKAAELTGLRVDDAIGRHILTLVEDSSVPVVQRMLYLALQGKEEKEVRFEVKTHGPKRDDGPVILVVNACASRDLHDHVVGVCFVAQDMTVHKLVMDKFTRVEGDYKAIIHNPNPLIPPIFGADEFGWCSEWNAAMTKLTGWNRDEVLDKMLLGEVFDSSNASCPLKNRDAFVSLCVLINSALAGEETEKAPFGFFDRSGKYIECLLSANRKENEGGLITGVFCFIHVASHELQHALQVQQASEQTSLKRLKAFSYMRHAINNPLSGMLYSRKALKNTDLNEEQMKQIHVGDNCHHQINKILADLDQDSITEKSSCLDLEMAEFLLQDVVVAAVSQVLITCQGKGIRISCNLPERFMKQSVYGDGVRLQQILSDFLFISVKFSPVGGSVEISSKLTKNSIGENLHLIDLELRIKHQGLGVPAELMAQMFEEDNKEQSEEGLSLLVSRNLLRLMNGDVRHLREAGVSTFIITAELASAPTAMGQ
Experiment: Autophosphorylation and kinase activity assays of 8-azido-ATP-labelled AsphyA
Format: biochemical
Settings: Pfr form of FL-AsphyA, 8-azido-ATP labeling buffer
Protocol: For autophosphorylation assays, reaction mixtures (20 μl) contained kinase buffer (25 mM Tris-HCl, pH 7.8, 0.2 mM EDTA, 4 mM DTT and 5 mM MgCl2) and purified recombinant phytochromes (0.5–1.0 μg) in either Pr or Pfr forms. Phytochrome samples were irradiated with red or far-red light for 15 min before the start of the reaction. Because histone H1 is known to stimulate phytochrome autophosphorylation activity, the same amount of histone H1 (0.5–1.0 μg) was added to the phytochrome samples in the indicated experiments. The conditions for kinase assays were similar to those of phytochrome autophosphorylation experiments, except for addition of a substrate (0.5–1.0 μg). Reactions were started by adding 150 μM ATP containing 10 μCi of (γ-^32P) ATP and incubated at 30 °C for 1 h. […] To verify the proteins loaded, Coomassie blue protein staining and zinc-fluorescence assay were performed before drying. For quantification of the phosphorylation, dried gels were exposed to Fuji imaging plates, and the relative signals of phyA autophosphorylation and PIF3 phosphorylation by phyA were quantitated with a Typhoon FLA 7000 phosphor-imager (GE Healthcare).
Supplementary Figure 11. […] 8-azido-ATP labeled proteins were then detected using avidin-HRP. […] The band intensities were quantified using ImageJ software, and the percentages of 8-azido-ATP labeling were normalized to the 66-610 protein signals. […]

Substance: 8-N3-ATP-biotin-long chain-hydrazone [8-azido-ATP]
- autophosphorylation of 8-azido-ATP-labelled AsphyA: little autophosphorylation
- kinase activity (PIF3) of 8-azido-ATP-labelled AsphyA: significantly reduced kinase activity
